# Data taken from article PMC11861159, “Design, synthesis, and in vitro, in vivo, and in silico evaluation of novel substituted 1,3,4-thiadiazole derivatives as anticonvulsant agents” (Frontiers in Chemistry, 2025).
# Tests used:
# [1] = target: T1, human carbonic anhydrase II (Homo sapiens, UniProt P00918); experiment: Human carbonic anhydrase II colorimetric (p-nitrophenyl acetate) inhibition assay; assay type: biochemical; details: mean ± SEM, three independent experiments in triplicate; read-out: CA II (IC50)
# T1 construct: purchased Sino Biological Inc, Beijing, China
# Method: (§1) In brief, the reaction mixture contained 60 μL of 50 mM Tris-sulfate buffer (pH 7.6, containing 0.1 mM ZnCl2),10 μL (0.5 mM) of the test compound in 1% DMSO, and 10 μL of human carbonic anhydrase II and IX (Sino Biological Inc, Beijing, China). All the ingredients were mixed well and pre-incubated at 25°C for 10 min. Substrate p-nitrophenyl acetate was prepared as a 6 mM stock solution using 5% of acetonitrile in buffer and was used fresh. […] The total assay volume was adjusted to 100 μL and further incubated at 37°C for 30 min. Furthermore, all the ingredients were mixed properly, and absorbance was measured. […] The results reported are the mean of triplicate experiments (±SEM) and expressed IC50 values, which were calculated.
# [2] = target: T2, human carbonic anhydrase IX (Homo sapiens, UniProt Q16790); experiment: Human carbonic anhydrase IX colorimetric (p-nitrophenyl acetate) inhibition assay; assay type: biochemical; details: mean ± SEM, three independent experiments in triplicate; read-out: CA IX (IC50)
# T2 construct: purchased Sino Biological Inc, Beijing, China
# Method: as §1
# [3] = test system: MES-induced seizures; experiment: Maximal electroshock-induced seizure (MES) test; assay type: in vivo, male Swiss albino mice;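 for % protection MES 0.5 h: percent reduction of the test group versus the control group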;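 for % protection MES 4 h: percent reduction of the test group versus the control group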
# [4] = test system: PTZ-induced seizures; experiment: Subcutaneous pentylenetetrazole (sc-PTZ) test; assay type: in vivo, male Swiss albino mice;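 for % protection Sc-PTZ 0.5 h: percent reduction of the test group versus the control group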;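 for % protection Sc-PTZ 4 h: percent reduction of the test group versus the control group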
# [5] = test system: mice; experiment: Rotarod neurotoxicity screening; assay type: in vivo, male Swiss albino mice
# Method: The rotarod test, as described in the literature, was used to evaluate neurotoxicity (NT) in mice. In brief, six mice (one group) were trained to balance on a spinning rod (3 cm diameter and 6 rpm speed) to familiarize with the rotarod apparatus (Orchid Scientific, India). Each mouse underwent three trials to remain on the rotating rod for over 1 minute, with the experiment’s cutoff time (180 s) remaining constant. Different pre-oral (p.o.) doses of test and standard substances were administered to the trained animals.
# [6] = test system: nitric oxide (NO); experiment: Nitrite/NO level (Greiss reagent) in brain homogenate of PTZ-treated mice; assay type: in vivo; details: brain supernatant, compared to pentylenetetrazole-treated group, n = 6
# Method: (§2) Brain tissue homogenates were prepared by isolating the brain (tissue) from the mice. Animals were euthanized under anesthesia by ketamine (80 mg/kg) and xylazine (5 mg/kg) after 8 h of inducing test and standard compounds. Mice’s brains (tissue) were quickly removed and weighed, and the whole brain samples were washed twice with ice-cold saline solution before being deposited in glass vials, labeled, and stored in a deep freeze (−30°C) until further use. Brain tissue samples were homogenized with a glass handheld homogenizer (PTFE coated). Tissue homogenates (10% w/v) were prepared in cold 0.1 M phosphate buffer (pH adjusted to 7.4) using a homogenizer. To test biological parameters, the supernatant from homogenates was centrifuged at 12,000 rpm for 20 min at 4°C.
# Greiss reagent, a solution of 0.5% sulfonamide, 2.5% phosphoric acid, and 0.05% naphthyl ethylenediamine, was used to measure nitric oxide (NO) in TSH. Greiss reagent and TSH absorbance were measured at 540 nm, and the sodium nitrite standard curve was used to calculate the quantity of nitrite ([Wills, 1996]; [Green et al., 1982]).
# [7] = test system: glutathione (GSH); experiment: Reduced glutathione level in brain of PTZ-treated mice; assay type: in vivo; details: compared to pentylenetetrazole-treated group, n = 6
# Method: as §2
# The quantity of glutathione (GSH) in the brain was determined using the Sedlak and Lindsay method ([Pant et al., 2023]). In brief, brain tissue was deproteinized with an equal amount of 10% TCA and left at 4°C for 2 h. The contents were centrifuged for 15 min at 1200 rpm. The supernatant was mixed with 2 mL of 0.4 M Tris buffer (pH 8.9) containing 0.02 M EDTA (pH 8.9), and then 0.01 M DTNB was added. Finally, the mixture was diluted with 0.5 mL of distilled water to make a total volume of 3 mL, and absorbance was measured using a spectrophotometer at 412 nm, with results expressed as mg GSH/gm tissue.
# [8] = test system: superoxide dismutase (SOD); experiment: Superoxide dismutase activity in brain homogenate of PTZ-treated mice; assay type: in vivo; details: compared to PTZ-administered group, n = 6
# Method: as §2
# Sun et al.'s approach ([…]) was used to determine Cu, Zn-SOD activity. An oxidase complex ([…]) generates superoxide radicals, which react with NBT to yield the formazan molecule in this process. In brief, a reactive was created by combining 0.1 mM xanthine, 0.1 mM EDTA, 50 mg bovine serum albumin, 25 mM NBT, and 40 mM Na2CO3 (pH 10.2). […] The sample’s absorbance was measured at 560 nm. […] The quantity of the enzyme that blocked NBT conversion to formazan by 50% was determined as one unit of SOD activity. SOD activity was measured in units per milligram of protein.
# [9] = test system: total antioxidant capacity (TAC); experiment: Total antioxidant capacity (FRAP) in brain tissue of PTZ-treated mice; assay type: in vivo; details: compared to pentylenetetrazole-treated group, n = 6
# Method: as §2
# Total antioxidant capacity (TAC) was measured by mixing 200 μL of tissue samples with 3 mL of ferric-reducing antioxidant power (FRAP) reagent in a vortex. After incubating samples and blank tubes in a water bath for 30 min at 37°C, the absorbance of the samples was measured at 593 nm. For the standard curve, a stock solution of FeSO4.7H2O in distilled water was produced. Stock solution concentrations were 200, 400, 800, 1200, and 1600 μM. The curve results were given as mM of ferrous sulfate equivalent Fe2+/L ([Sun et al., 1988]).
# [10] = test system: GABA level; experiment: Estimation of brain GABA level; assay type: in vivo, mice; details: 30 mg/kg p.o., 2 h after administration, compared to pentylenetetrazole-treated group
# Method: as §2, with “Animals were euthanized under anesthesia by ketamine (80 mg/kg) and xylazine (5 mg/kg) after 8 h of inducing test and standard compounds.” left out
# The supernatant was put on silica gel 60 F254 aluminum sheets (10 cm × 10 cm) as the stationary phase, with the mobile phase consisting of water-saturated phenol. Prior to chromatography, TLC plates were prewashed with methanol and activated in an oven at 50°C for 5 min. The 0.1 mL supernatant solutions were applied in the form of bands on TLC plates. At room temperature, ascending development was carried out in a glass chamber saturated with the mobile phase for 30 min until a length of 80 mm was reached. The TLC plates that had been created were air-dried and treated with ninhydrin. […] The method’s specificity was determined by obtaining standard GABA samples and comparing their Rf values. […]
# [11] = test system: induced seizures; experiment: Anticonvulsant screening (MES and sc-PTZ), outcome recovery/death
# Method: The test compounds and the standard drugs were dissolved in a 0.9% NaCl solution.
# After half an hour of p.o. administration of the standard and the tested compounds, an electro-convulsometer (Outus, Ambala Cantt, India) delivered an electrical stimulus of sufficient intensity (25 mA, 500 V, 50 Hz, 0.2 s) via auricular electrodes to induce maximal seizures (Figure 1). To avoid the animal’s death, a drop of 0.9% saline was injected into the eye before the insertion of the electrodes. The tonic hind limb extension (i.e., the hind limbs of the animals outstretched 180° to the plane of the body axis) served as the basic principle for the occurrence of seizure activity. Abolition of the hind limb tonic extensor (HLTE) component of the seizure is defined as protection.
# [12] = oral, lowest dose active in half or more of the mice, 0.5 h, n = 6
# [13] = oral, lowest dose active in half or more of the mice, 4 h, n = 6
smiles,measurement,setting,value
"CCN(CC)CCOc1cccc(C(=O)Nc2nncs2)c1 [Compound 6d, 3-(2-(diethylamino)ethoxy)-N-(1,3,4-thiadiazol-2-yl)benzamide]",IC50,[1],80 ± 50 nM
same,IC50,[2],100 ± 20 nM
same,% protection MES 0.5 h,"[3]; 30 mg/kg oral, 0.5 h",38.96%
same,% protection MES 4 h,"[3]; 30 mg/kg oral, 4 h",41.53%
same,% protection MES 0.5 h,"[3]; 100 mg/kg oral, 0.5 h",55.38%
same,% protection MES 4 h,"[3]; 100 mg/kg oral, 4 h",60%
same,% protection MES 0.5 h,"[3]; 300 mg/kg oral, 0.5 h",72.30%
same,% protection MES 4 h,"[3]; 300 mg/kg oral, 4 h",89.46%
same,Minimum active dose (mg/kg) MES 0.5 h,[3]; [12],30 mg/kg
same,Minimum active dose (mg/kg) MES 4 h,[3]; [13],30 mg/kg
same,% protection Sc-PTZ 0.5 h,"[4]; 30 mg/kg oral, 0.5 h",38.59%
same,% protection Sc-PTZ 4 h,"[4]; 30 mg/kg oral, 4 h",46.34%
same,% protection Sc-PTZ 0.5 h,"[4]; 100 mg/kg oral, 0.5 h",58.30%
same,% protection Sc-PTZ 4 h,"[4]; 100 mg/kg oral, 4 h",66.34%
same,% protection Sc-PTZ 0.5 h,"[4]; 300 mg/kg oral, 0.5 h",70.4%
same,% protection Sc-PTZ 4 h,"[4]; 300 mg/kg oral, 4 h",82.88%
same,Minimum active dose (mg/kg) Sc-PTZ 0.5 h,[4]; [12],30 mg/kg
same,Minimum active dose (mg/kg) Sc-PTZ 4 h,[4]; [13],30 mg/kg
same,"Neurotoxicity (rotarod test), result in words",[5]; at the highest dose (300 mg/kg),without any sign of neurotoxicity
same,Neurotoxicity dose (mg/kg) 0.5 h,"[5]; rotarod, oral doses 30, 100, 300 mg/kg, 0.5 h",- (The indication - (dash) denotes a lack of action at the maximum dose supplied (300 mg/kg))
same,Neurotoxicity dose (mg/kg) 4 h,"[5]; rotarod, oral doses 30, 100, 300 mg/kg, 4 h",- (The indication - (dash) denotes a lack of action at the maximum dose supplied (300 mg/kg))
same,NO (nitrite) level,[6],significantly reduced NO levels
same,GSH level,[7],significant increase in GSH levels
same,SOD activity,[8],significant increase in SOD activity
same,TAC level (FRAP),[9],significant increase in TAC levels
same,GABA level in the brain,[10],significant increase in GABA levels
same,Recovery/death,[11]; 30 mg/kg oral,Recovery
same,Recovery/death,[11]; 100 mg/kg oral,Recovery
same,Recovery/death,[11]; 300 mg/kg oral,Recovery
